Source: US12673961B2 (Agios Pharmaceuticals, Inc., priority 2022, dated 2026)

Biological target: T1, human PAH with the R408W mutation (Homo sapiens, UniProt P00439, R408W)
T1 construct: expressed in transfected cells
T1 sequence (P00439 1-452 R408W): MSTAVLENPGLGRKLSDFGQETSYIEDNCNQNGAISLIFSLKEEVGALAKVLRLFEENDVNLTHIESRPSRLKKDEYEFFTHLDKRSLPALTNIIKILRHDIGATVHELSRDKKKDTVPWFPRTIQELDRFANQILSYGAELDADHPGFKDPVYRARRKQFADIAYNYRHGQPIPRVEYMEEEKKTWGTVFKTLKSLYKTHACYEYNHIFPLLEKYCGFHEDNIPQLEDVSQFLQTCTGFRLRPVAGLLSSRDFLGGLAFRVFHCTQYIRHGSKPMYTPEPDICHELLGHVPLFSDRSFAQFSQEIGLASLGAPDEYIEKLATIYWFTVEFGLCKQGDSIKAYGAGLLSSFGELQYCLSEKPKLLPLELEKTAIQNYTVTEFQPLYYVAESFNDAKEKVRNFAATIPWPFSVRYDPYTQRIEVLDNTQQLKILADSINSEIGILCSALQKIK
Test: Cell Based Phenylalanine Flux Assay;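 further: Ten-point dose curve from 2-fold serial dilutions, run in duplicate at 0.5% DMSO final, tracer step used 20 µM sepiapterin and 800 µM labeled phenylalanine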
Design: scale not given here
Conditions: A375 cells expressing R408W PAH; 24 hrs with compound, then 20 μM sepiapterin and 800 μM 13C9,15N-Phenylalanine for 4 hours; 13C-Tyrosine in media by LC-MS; average where tested multiple times

| AC50 | SMILES |
| --- | --- |
| E, E | FC(F)c1cccn2nc([C@H]3c4nc[nH]c4CCN3c3nnc(-c4ccncn4)o3)cc12 (single isomer, unassigned) |

Same assay, conditions: A375 cells expressing R408W PAH; 24 hrs with compound, then 20 μM sepiapterin and 800 μM 13C9,15N-Phenylalanine for 4 hours; 13C-Tyrosine in media by LC-MS; average where tested multiple times; read-out: AC50

| SMILES | AC50 [µM] |
| --- | --- |
| CC(C)(O)c1noc(C(=O)N2CCc3[nH]cnc3[C@H]2c2cc3ccccn3n2)n1 (single isomer, unassigned) | > 5 |
| O=C(c1nnc(C2CC(F)(F)C2)o1)N1CCc2[nH]cnc2C1c1cc2cccc(F)n2n1 (stereo not shown) | 1 to 5 |
| FC(F)(F)c1ccc(N2CCc3[nH]cnc3C2c2cc3cccc(C(F)(F)F)n3n2)nc1 (single isomer, unassigned) [4S enantiomer of 5-(trifluoromethyl)-2-[4-[7-(trifluoromethy] | 1 to 5 |

Continued, values first:

| AC50 [µM] | SMILES |
| --- | --- |
| 1 to 5 | Clc1cccn2nc([C@@H]3c4nc[nH]c4CCN3c3nnc(-c4ncccn4)o3)cc12 (single isomer, unassigned) |
| 1 to 5 | Cc1cccn2nc([C@@H]3c4nc[nH]c4CCN3c3nnc(-c4cnn(C)c4)o3)cc12 (single isomer, unassigned) |

Same assay, conditions: A375 cells expressing human R408W PAH; 24 hrs compound incubation; 13C-Tyrosine by LC-MS; average where tested multiple times; read-out: AC50

| SMILES | AC50 [µM] |
| --- | --- |
| O=C(c1nnc(-c2cccnc2)o1)N1CCc2[nH]cnc2[C@H]1c1cc2ccccn2n1 [Example 1346, (S)-(4-(pyrazolo[1,5-a]pyridin-2-yl)-6,7-dihydro-1H-imidazo[4,5-c]pyridin-5(4H)-yl)(5-(pyridin-3-yl)-1,3,4-oxadiazol-2-yl)methanone] | 0.5 to 1 |
| N#Cc1ncoc1C(=O)N1CCc2[nH]cnc2[C@@H]1c1cc2ccccn2n1 (single isomer, unassigned) [Example 641] | > 5 |
| Cc1c(-c2nnc(C(=O)N3CCc4[nH]cnc4[C@@H]3c3cc4cccc(C(F)F)n4n3)o2)cnn1C [Example 1367, (R)-(4-(7-(difluoromethyl)pyrazolo[1,5-a]pyridin-2-yl)-6,7-dihydro-1H-imidazo[4,5-c]pyridin-5(4H)-yl)(5-(1,5-dimethyl-1H-pyrazol-4-yl)-1,3,4-oxadiazol-2-yl)methanone] | 1 to 5 |
| Cn1nc(C(F)(F)F)nc1C(=O)N1CCc2[nH]cnc2[C@H]1c1cc2c(C(F)(F)F)cccn2n1 [Example 1062, (S)-(1-methyl-3-(trifluoromethyl)-1H-1,2,4-triazol-5-yl)(4-(4-(trifluoromethyl)pyrazolo[1,5-a]pyridin-2-yl)-6,7-dihydro-1H-imidazo [4,5-c]pyridin-5(4H)-yl)methanone] | < 0.5 |
| O=C(c1ccnn1C1CC1)N1CCc2[nH]cnc2[C@H]1c1cc2c(F)cccn2n1 [Example 848, (S)-(1-cyclopropyl-1H-pyrazol-5-yl)(4-(4-fluoropyrazolo[1,5-a]pyridin-2-yl)-6,7-dihydro-1H-imidazo[4,5-c]pyridin-5(4H)-yl)methanone] | < 0.5 |
| CCOc1cccc2cc(C3c4nc[nH]c4CCN3C(=O)c3oc(C(C)(C)O)nc3C(F)F)nn12 (stereo in doubt) [Example 1245, (S)-(4-(difluoromethyl)-2-(2-hydroxypropan-2-yl)oxazol-5-yl)(4-(7-ethoxypyrazolo [1,5-a]pyridin-2-yl)-6,7-dihydro-1H-imidazo[4,5-c]pyridin-5(4H)-yl)methanone] | 0.5 to 1 |
| Cc1cccn2nc([C@H]3c4nc[nH]c4CCN3C(=O)c3nnc(-c4ccn(C)n4)o3)cc12 [Example 742, (R)-(5-(1-methyl-1H-pyrazol-3-yl)-1,3,4-oxadiazol-2-yl)(4-(4-methylpyrazolo[1,5-a]pyridin-2-yl)-6,7-dihydro-1H-imidazo [4,5-c]pyridin-5(4H)-yl)methanone] | > 5 |

Continued, values first:

| AC50 [µM] | SMILES |
| --- | --- |
| < 0.5 | O=C(c1nnc(-c2ccccn2)o1)N1CCc2[nH]cnc2[C@H]1c1cc2c(C(F)F)cccn2n1 [Example 1314, (S)-(4-(4-(difluoromethyl)pyrazolo[1,5-a]pyridin-2-yl)-6,7-dihydro-1H-imidazo [4,5-c]pyridin-5(4H)-yl)(5-(pyridin-2-yl)-1,3,4-oxadiazol-2-yl)methanone] |
| < 0.5 | O=C(c1nnc(-c2cnccn2)o1)N1CCc2[nH]cnc2[C@H]1c1cc2c(Cl)cccn2n1 [Example 1332, (S)-(4-(4-chloropyrazolo [1,5-a]pyridin-2-yl)-6,7-dihydro-1H-imidazo[4,5-c]pyridin-5(4H)-yl)(5-(pyrazin-2-yl)-1,3,4-oxadiazol-2-yl)methanone] |

Same assay, conditions: A375 cells expressing human R408W PAH; 24 hrs with compound, then sepiapterin and 13C9,15N-Phenylalanine for 4 hours; 13C-Tyrosine by LC-MS; average where tested multiple times; read-out: AC50

| SMILES | AC50 [µM] |
| --- | --- |
| FC(F)(F)Oc1cccn2nc([C@H]3c4nc[nH]c4CCN3c3nnc(C(F)(F)F)o3)cc12 [Example 2252, (R)-2-(4-(4-(trifluoromethoxy)pyrazolo[1,5-a]pyridin-2-yl)-1,4,6,7-tetrahydro-5H-imidazo[4,5-c]pyridin-5-yl)-5-(trifluoromethyl)-1,3,4-oxadiazole] | 0.5 to 1 |
| FC(F)(F)c1cccn2nc([C@H]3c4nc[nH]c4CCN3c3ncccn3)cc12 [Example 1693, (R)-5-(pyrimidin-2-yl)-4-(4-(trifluoromethyl)pyrazolo [1,5-a]pyridin-2-yl)-4,5,6,7-tetrahydro-1H-imidazo [4,5-c]pyridine] | 1 to 5 |
| O=C(C1CCC1)N1CCc2[nH]cnc2[C@@H]1c1cc2c(F)cccn2n1 [Example 2081, (R)-cyclobutyl(4-(4-fluoropyrazolo[1,5-a]pyridin-2-yl)-1,4,6,7-tetrahydro-5H-imidazo[4,5-c]pyridin-5-yl)methanone] | > 5 |
| Cc1cc(-c2nnc(C(=O)N3CCc4[nH]cnc4[C@H]3c3cc4c(F)cccn4n3)o2)n[nH]1 [Example 2295, (S)-(4-(4-fluoropyrazolo [1,5-a]pyridin-2-yl)-1,4,6,7-tetrahydro-5H-imidazo[4,5-c]pyridin-5-yl)(5-(5-methyl-1H-pyrazol-3-yl)-1,3,4-oxadiazol-2-yl)methanone] | 0.5 to 1 |
| FC(F)Oc1cccn2nc([C@@H]3c4nc[nH]c4CCN3c3cnccn3)cc12 [Example 2319, (S)-4-(4-(difluoromethoxy)pyrazolo[1,5-a]pyridin-2-yl)-5-(pyrazin-2-yl)-4,5,6,7-tetrahydro-1H-imidazo[4,5-c]pyridine] | < 0.5 |
| Cc1c[nH]nc1-c1nnc(C(=O)N2CCc3[nH]cnc3[C@H]2c2cc3c(F)cccn3n2)o1 [Example 2296, (S)-(4-(4-fluoropyrazolo [1,5-a]pyridin-2-yl)-1,4,6,7-tetrahydro-5H-imidazo[4,5-c]pyridin-5-yl)(5-(4-methyl-1H-pyrazol-3-yl)-1,3,4-oxadiazol-2-yl)methanone] | < 0.5 |
| O=C(c1cnn2cc(-c3ccccn3)ccc12)N1CCc2[nH]cnc2[C@H]1c1cc2ccccn2n1 [Example 1416, (S)-(4-(pyrazolo[1,5-a]pyridin-2-yl)-6,7-dihydro-1H-imidazo[4,5-c]pyridin-5(4H)-yl)(6-(pyridin-2-yl)pyrazolo[1,5-a]pyridin-3-yl)methanone] | < 0.5 |

Other lines, results leading:

| AC50 [µM] | SMILES |
| --- | --- |
| 0.5 to 1 | Clc1cccn2nc([C@@H]3c4nc[nH]c4CCN3c3nnc(-c4ccncn4)o3)cc12 [Example 2182, (S)-2-(4-(4-chloropyrazolo [1,5-a]pyridin-2-yl)-1,4,6,7-tetrahydro-5H-imidazo[4,5-c]pyridin-5-yl)-5-(pyrimidin-4-yl)-1,3,4-oxadiazole] |
| < 0.5 | FC(F)c1nnc(N2CCc3[nH]cnc3[C@H]2c2cc3c(C4CC4)cccn3n2)o1 [Example 2167] |
| 1 to 5 | CC(C)c1cccn2nc([C@@H]3c4nc[nH]c4CCN3c3nnc(-c4cccnn4)o3)cc12 [Example 2512, (S)-2-(4-(4-isopropylpyrazolo [1,5-a]pyridin-2-yl)-1,4,6,7-tetrahydro-5H-imidazo [4,5-c]pyridin-5-yl)-5-(pyridazin-3-yl)-1,3,4-oxadiazole] |
